{"source": "patent US10357577B2", "about": "“Bacterial nitroreductase enzymes and methods relating thereto” (AUCKLAND UNISERVICES LIMITED, priority 2010, dated 2019)", "key": {"[1]": {"test_system": "HCT116 cells expressing E. coli NfsA", "assay_type": "cell-based, human", "conditions": "18 hrs exposure, 5 days regrowth; IC50 of WT versus NTR-expressing cells", "procedure": "(§1) FIGS. 10 (B) and 10 (C) illustrates the results of evaluation of 2-nitroimidazole clinical imaging candidates with E. coli and non-E. coli NTRs. Stably-expressing cells were treated with varying concentration of 2-nitroimidazole prodrugs diluted in αMEM+5% FCS+P/S. Cells were exposed to prodrug for 18 hrs, washed and left to regrow for 5 days. IC50 was determined as the concentration of prodrug required to inhibit cell growth by 50% of untreated controls. IC50 values are mean for ≥2 independent experiments. WT:NTR ratio-ratio of IC50 means from WT cells versus NTR-expressing cell lines.\nas §1, with “FIG. 21” for “FIGS. 10 (B) and 10 (C)”, “antiproliferative activity (IC50 value)” for “the results”, “prodrug” for “evaluation of 2-nitroimidazole clinical imaging”, “nitroreductases.” for “NTRs.”, “prodrug” for “2-nitroimidazole prodrugs”, “ratio-interexperimental ratio” for “ratio-ratio”\nIsolated NTR gene sequences were subject to PCR and introduced in the bicistronic plasmid F579 via Gateway cloning (Invitrogen) as described by Prosser et al. (2010, Biochem Pharmacol, 79, 678-687). Stably transfected cell lines were created by transfection of the relevant plasmid using FuGENE 6 Transfection Reagent (Roche). Transfected cell populations were maintained by passage in puromycin\nCells were passaged in alpha-Minimal Essential Media, (αMEM; Gibco) supplemented with 5% FBS, (GIBCO NZ) without antibiotics. Cell were passaged for <3 months from frozen stocks and confirmed Mycoplasma free (PCR-ELISA; Roche Diagnostics). Cells were aliquoted into the 96-well plate (100 μL/well) and cells were left to attach (≥4 hrs). […] Plates were read on an ELx 808 Absorbance Microplate Reader (Bio-Tek Instruments). Absorbance was measured at 490 nm and 450 nm (final absorbance 490-450). […]"}, "[2]": {"test_system": "nfsA-expressing cells in mixed HCT116 xenografts", "experiment": "Immunohistochemical detection of EF5 binding in tumour xenograft sections", "assay_type": "in vivo, mice", "conditions": "constant exposure time 0.5 s", "procedure": "FIG. 16 (A) illustrates immunohistochemical detection of EF5 binding in human tumour xenografts harbouring 0%, 3%, 12% or 20% HCT-116^nfsA expressing cells. FIG. 16 (A) further illustrates Fluorescent microscope pictures of tumour sections, and FIG. 16 (B) illustrates flow cytometry histograms of EF5/CY5 fluorescence to confirm % NfsA expressing cells of individual tumour.\nIn vivo: mice were treated with 60 mg/kg EF5 (ip) and left for 24 hrs. Tumour tissue was excised, fixed in 10% formalin dissolved in PBS (48 h), transferred to 70% ethanol and embedded in paraffin. Sections (5 μm) were cut, mounted onto poly-L-lysine coated glass slides and heat fixed for 1 h at 60° C. Sections were dewaxed, rehydrated, washed in Milli-Q water and then rinsed in 0.01 M Tris buffered saline (TBS, pH 7.4). Antigen retrieval was achieved by boiling samples in 10 mM sodium citrate buffer pH 6 for 25 min. Sections were washed with TBS containing 0.1% Tween-20 (TBS-T) and blocked with 1% mouse serum in TBS. After rinsing, the samples were incubated for 2 hr at room temperature with 100 μg/ml anti-EF5 (Alexa-488) primary antibody diluted in PBS containing 0.2% Tween-20. After rinsing in with TBS-T the coverslips were mounted with Prolong Gold antifade (Invitrogen) and sealed with nail varnish. […] Images were analysed and overlaid using Adobe Photoshop software (Adobe Photoshop 4.0)."}}, "data": [{"molecule": "O=C(Cn1ccnc1[N+](=O)[O-])NCC(F)(F)C(F)(F)F", "note": "[EF5, 2-(2-nitro-1H-imidazol-1-yl)-N-(2,2,3,3,3-pentafluoropropyl)acetamide]", "values": [{"measurement": "WT:NTR ratio (maximum growth inhibitory effect)", "setting": "[1]", "result": 1600, "unit": "fold"}, {"measurement": "EF5 retention versus hypoxic activation in HCT-116 parental cells (in words)", "setting": "[2]", "result": "clearly superior"}]}]}
